Source: PubChem BioAssay AID248 (DTP/NCI, 2004)
Inconclusive results and toxic doses are left out. Rule as the data show it: active = T/C of 150% or more; inactive = T/C below 125%.

System: L1210 leukemia ip in BDF1 mice, survival T/C
Assay: NCI In Vivo Anticancer Drug Screen. Data for tumor model L1210 Leukemia (intraperitoneal) in B6D2F1 (BDF1) mice
Conditions: endpoint: mean survival time, higher = longer survival
Procedure, shortened: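 In this screen, tumor-bearing mice given compound are compared to those given vehicle, and their survival values are reported as a treated-to-control quotient.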

[1] = dose: 100.0 mg/kg/injection, schedule: Q04DX002 (ip), vehicle: Klucel (hydroxypropylcellulose) (HPC)
[2] = dose: 200.0 mg/kg/injection, schedule: Q04DX002 (ip), vehicle: Klucel (hydroxypropylcellulose) (HPC)
[3] = dose: 400.0 mg/kg/injection, schedule: Q04DX002 (ip), vehicle: Klucel (hydroxypropylcellulose) (HPC)
[4] = dose: 25.0 mg/kg/injection, schedule: Q01DX009 (ip), vehicle: saline
[5] = dose: 50.0 mg/kg/injection, schedule: Q01DX009 (ip), vehicle: saline
[6] = dose: 100.0 mg/kg/injection, schedule: Q04DX003 (ip), vehicle: saline
[7] = dose: 50.0 mg/kg/injection, schedule: Q01DX001 (ip), vehicle: saline
[8] = dose: 100.0 mg/kg/injection, schedule: Q01DX001 (ip), vehicle: saline
[9] = dose: 200.0 mg/kg/injection, schedule: Q01DX001 (ip), vehicle: saline
[10] = dose: 400.0 mg/kg/injection, schedule: Q01DX001 (ip), vehicle: saline
[11] = dose: 100.0 mg/kg/injection, schedule: Q01DX009 (ip), vehicle: other
[12] = dose: 100.0 mg/kg/injection, schedule: Q04DX003 (ip), vehicle: other
[13] = dose: 200.0 mg/kg/injection, schedule: Q01DX009 (ip), vehicle: other
[14] = dose: 200.0 mg/kg/injection, schedule: Q04DX003 (ip), vehicle: other
[15] = dose: 400.0 mg/kg/injection, schedule: Q04DX003 (ip), vehicle: other
[16] = dose: 50.0 mg/kg/injection, schedule: Q04DX002 (ip), vehicle: Klucel (hydroxypropylcellulose) (HPC)
[17] = dose: 100.0 mg/kg/injection, schedule: Q01DX009 (ip), vehicle: saline
[18] = dose: 200.0 mg/kg/injection, schedule: Q01DX009 (ip), vehicle: saline
[19] = dose: 100.0 mg/kg/injection, schedule: Q01DX009 (ip), vehicle: saline with Tween-80
[20] = dose: 200.0 mg/kg/injection, schedule: Q01DX009 (ip), vehicle: saline with Tween-80
[21] = dose: 400.0 mg/kg/injection, schedule: Q01DX009 (ip), vehicle: saline with Tween-80
[22] = dose: 12.5 mg/kg/injection, schedule: Q01DX009 (ip), vehicle: Klucel (hydroxypropylcellulose) (HPC)
[23] = dose: 12.5 mg/kg/injection, schedule: Q04DX003 (ip), vehicle: Klucel (hydroxypropylcellulose) (HPC)
[24] = dose: 25.0 mg/kg/injection, schedule: Q04DX003 (ip), vehicle: Klucel (hydroxypropylcellulose) (HPC)
[25] = dose: 100.0 mg/kg/injection, schedule: Q04DX003 (ip), vehicle: saline with Tween-80
[26] = dose: 200.0 mg/kg/injection, schedule: Q04DX003 (ip), vehicle: saline with Tween-80
[27] = dose: 400.0 mg/kg/injection, schedule: Q04DX003 (ip), vehicle: saline with Tween-80
[28] = dose: 100.0 mg/kg/injection, schedule: Q04DX002 (ip), vehicle: saline with Tween-80
[29] = dose: 400.0 mg/kg/injection, schedule: Q04DX002 (ip), vehicle: saline with Tween-80
[30] = dose: 200.0 mg/kg/injection, schedule: Q04DX003 (ip), vehicle: saline

Measured: T/C

O=C(c1ccccc1)C(c1ccccc1)(c1ccccc1)c1ccccc1
inactive: dose: 50.0 mg/kg/injection, schedule: Q01DX001 (ip), vehicle: carboxymethylcellulose (CMC) 90 % of control | dose: 100.0 mg/kg/injection, schedule: Q01DX001 (ip), vehicle: carboxymethylcellulose (CMC) 95 % of control | [1] 97 % of control | dose: 200.0 mg/kg/injection, schedule: Q01DX001 (ip), vehicle: carboxymethylcellulose (CMC) 108 % of control | [2] 94 % of control | dose: 400.0 mg/kg/injection, schedule: Q01DX001 (ip), vehicle: carboxymethylcellulose (CMC) 123 % of control | [3] 97 % of control

COc1cccc(CBr)c1-c1c(CBr)cccc1OC
inactive: [1] 94 % of control | [2] 110 % of control | [3] 94 % of control

CCCCNC(C)C(=O)c1ccccc1 (configuration not stated)
inactive: dose: 12.5 mg/kg/injection, schedule: Q04DX003 (ip), vehicle: saline 100 % of control | [4] 101 % of control | dose: 25.0 mg/kg/injection, schedule: Q04DX003 (ip), vehicle: saline 90 % of control | [5] 101 % of control | dose: 50.0 mg/kg/injection, schedule: Q04DX003 (ip), vehicle: saline 100 % of control | [6] 94 % of control

COc1ccc(OC)c2c(=O)cc(C(=O)O)[nH]c12
inactive: [7] 98 % of control | [8] 97 % of control | [9] 95 % of control

CCOC(=O)C1=C(NNC(N)=S)C2CCN1CC2
inactive: [8] 105 % of control | [9] 100 % of control | [10] 101 % of control

COC1CN(C)C(=Nc2cccc3ccccc23)S1 (configuration not stated)
inactive: [11] 100 % of control | [12] 103 % of control | [13] 94 % of control | [14] 95 % of control | dose: 400.0 mg/kg/injection, schedule: Q01DX009 (ip), vehicle: other 97 % of control | [15] 92 % of control

CC1(C)C=CN(c2ccccc2)C(=O)O1
inactive: [1] 94 % of control | [2] 98 % of control | [3] 98 % of control

CC(C)(C)NC(=O)NC(C)(C)C
inactive: [16] 95 % of control | [1] 92 % of control | [2] 103 % of control

CCC(=O)ONO
inactive: [5] 94 % of control | [17] 102 % of control | [18] 94 % of control

CCc1ccc(NS(=O)(=O)c2c(C)cc(C)cc2C)cc1
inactive: dose: 100.0 mg/kg/injection, schedule: Q01DX009 (ip), vehicle: Klucel (hydroxypropylcellulose) (HPC) 101 % of control | dose: 200.0 mg/kg/injection, schedule: Q01DX009 (ip), vehicle: Klucel (hydroxypropylcellulose) (HPC) 105 % of control | dose: 400.0 mg/kg/injection, schedule: Q01DX009 (ip), vehicle: Klucel (hydroxypropylcellulose) (HPC) 97 % of control

COC(=O)CC1CCS(=O)(=O)C1 (configuration not stated)
inactive: [19] 101 % of control | [20] 103 % of control | [21] 95 % of control

CC(=O)C1=CC(=O)NC(=O)C1C(=O)CC(C)C (configuration not stated)
inactive: dose: 0.78 mg/kg/injection, schedule: Q01DX009 (ip), vehicle: Klucel (hydroxypropylcellulose) (HPC) 97 % of control | dose: 1.56 mg/kg/injection, schedule: Q01DX009 (ip), vehicle: Klucel (hydroxypropylcellulose) (HPC) 97 % of control | dose: 3.12 mg/kg/injection, schedule: Q01DX009 (ip), vehicle: Klucel (hydroxypropylcellulose) (HPC) 93 % of control | dose: 6.25 mg/kg/injection, schedule: Q01DX009 (ip), vehicle: Klucel (hydroxypropylcellulose) (HPC) 98 % of control | [22] 98 % of control | [23] 98 % of control | [24] 96 % of control

N#CCc1c[nH]c2ccc(OCc3ccccc3)cc12
inactive: dose: 50.0 mg/kg/injection, schedule: Q01DX009 (ip), vehicle: other 100 % of control | [11] 94 % of control | [13] 108 % of control

CCOC(=O)Nc1ccc(Cl)cc1
inactive: [1] 89 % of control | [2] 108 % of control | [3] 108 % of control

C=CCNC(=S)Nc1ccc(OC(=O)NC2CCCCC2)cc1
inactive: [19] 110 % of control | [25] 110 % of control | [20] 106 % of control | [26] 113 % of control | [21] 102 % of control | [27] 98 % of control

O=C(N/N=C/c1ccc(Cl)c(Cl)c1)c1cccc2ccccc12
inactive: [8] 87 % of control | [10] 90 % of control

CC(C)(O)C1C2OC(=O)C1C1(O)CC3OC34C(=O)OC2C14C (configuration not stated)
inactive: [23] 100 % of control | [24] 100 % of control | dose: 50.0 mg/kg/injection, schedule: Q04DX003 (ip), vehicle: Klucel (hydroxypropylcellulose) (HPC) 100 % of control | dose: 75.0 mg/kg/injection, schedule: Q01DX001 (ip), vehicle: other 102 % of control | dose: 150.0 mg/kg/injection, schedule: Q01DX001 (ip), vehicle: other 109 % of control

CC(=O)Nc1cc(C/C(N)=N/O)cc(NC(C)=O)c1
inactive: [19] 97 % of control | [20] 92 % of control | [21] 100 % of control

O=C1NC(=O)C2CC=CCC12 (configuration not stated)
inactive: [25] 101 % of control | [26] 106 % of control | [27] 106 % of control

CCCCCCCCCCCCC(=O)O
inactive: [28] 98 % of control | dose: 200.0 mg/kg/injection, schedule: Q04DX002 (ip), vehicle: saline with Tween-80 98 % of control | [29] 105 % of control

Cc1ccc(C(=O)CCc2ccccc2)cc1
inactive: [12] 92 % of control | [14] 91 % of control | [15] 94 % of control

O=C(CC(c1ccccc1)N1CCN(c2ccccc2)CC1)c1ccc(F)cc1 (configuration not stated)
inactive: [22] 88 % of control | dose: 25.0 mg/kg/injection, schedule: Q01DX009 (ip), vehicle: Klucel (hydroxypropylcellulose) (HPC) 93 % of control | dose: 50.0 mg/kg/injection, schedule: Q01DX009 (ip), vehicle: Klucel (hydroxypropylcellulose) (HPC) 93 % of control | dose: 200.0 mg/kg/injection, schedule: Q01DX009 (ip), vehicle: gum acacia 87 % of control | dose: 400.0 mg/kg/injection, schedule: Q01DX009 (ip), vehicle: gum acacia 89 % of control

O=[N+]([O-])/C=C/c1ccc(O)cc1
inactive: dose: 50.0 mg/kg/injection, schedule: Q01DX015 (ip), vehicle: saline 97 % of control | dose: 50.0 mg/kg/injection, schedule: Q04DX003 (ip), vehicle: acetone 96 % of control

c1cn2cncc2cn1
inactive: [4] 90 % of control | [5] 103 % of control | [17] 88 % of control | [6] 103 % of control | [30] 94 % of control

O=C1C2=C(C(=O)C3=C1C1CCC3C1)C1CCC2C1
inactive: [28] 90 % of control | [29] 93 % of control

Cc1cc(C(=O)CC(C)C(=O)O)cc2c1sc1ccccc12 (configuration not stated)
inactive: [8] 86 % of control | [9] 100 % of control

[N-]=[N+]=NC(=O)c1cccc2c1Cc1ccccc1-2
inactive: [25] 96 % of control | [26] 86 % of control | [27] 96 % of control

Nc1nc(NCCCc2ccccc2)c2[nH]cnc2n1
inactive: dose: 12.5 mg/kg/injection, schedule: Q04DX002 (ip), vehicle: Klucel (hydroxypropylcellulose) (HPC) 98 % of control | dose: 25.0 mg/kg/injection, schedule: Q04DX002 (ip), vehicle: Klucel (hydroxypropylcellulose) (HPC) 95 % of control | [16] 102 % of control

CN(C)CCC#N
inactive: [7] 97 % of control | [5] 106 % of control | [8] 97 % of control | [17] 108 % of control | [6] 100 % of control | [9] 100 % of control | [18] 112 % of control | [30] 100 % of control | [10] 97 % of control
